We go through 1 compound from publication PMC5923142, “Selection and Characterization of Rupintrivir-Resistant Norwalk Virus Replicon Cells In Vitro” (Antimicrobial Agents and Chemotherapy, 2018).

Molecules are shown by their SMILES.

Assay [1] relates to Norwalk virus replicon. In words: Norwalk virus replicon RNA level in HGT-NV cells by qRT-PCR. It is filed as cell-based, Human norovirus (HuNoV) GI. As for the experimental part:
A human gastric tumor-1 (HGT-1) cell line ([29]) was used to establish a human norovirus replicon-harboring HGT (HGT-NV) cell line. In brief, viral protein genome (VPg)-linked RNA was isolated from BHK cells containing the Norwalk virus GI replicon and transfected into HGT-1 cells. HGT-NV replicon cells were selected in G418 (1 mg/ml), and limiting dilution was used to identify a clone with high viral RNA levels. The generated HGT-NV replicon cells were grown and maintained under G418 selection. The replicon-containing BHK cell line was generated by the transfection of in vitro-transcribed capped RNA from the cDNA construct of the Norwalk virus replicon ([9]), kindly provided by Kim Green (National Institutes of Health, Bethesda, MD, USA), into baby hamster kidney cells. Human embryonic kidney HEK293T cells were obtained from ATCC. The murine microglial BV-2 cell line was provided by Jennifer Pocock (University College London, London, UK). […]
The inhibitory effect of rupintrivir on HuNoV replication was assessed by quantification of the levels of GI NuNoV RNA and β-actin RNA as the reference gene. […] The real-time quantitative reverse transcription-PCR (qRT-PCR) assay was performed by using a One-Step Plus qRT-PCR kit according to the protocol of the manufacturer (Primer Design). […] Relative quantification was performed using the 2^−ΔΔCT threshold cycle (CT) method ([38]). […]

Assay [2] has as its system Norwalk virus replicon. In words: Colony formation assay with HGT-NV cells after 12 days of treatment. It is filed as cell-based, Human norovirus (HuNoV) GI. The settings on record: then 1 week G418 1.5 mg/ml without drug. As for the experimental part:
HGT-NV cells treated with rupintrivir or DMSO for 12 days in the absence of G418 were plated into 6-well plates in complete DMEM and maintained without rupintrivir in the presence of G418 (1.5 mg/ml). After 1 week of incubation, the colonies on the plate were stained with 0.1% toluidine blue and photographed.

Regarding `CCOC(=O)/C=C/[C@H](C[C@@H]1CCNC1=O)NC(=O)[C@@H](CC(=O)[C@@H](NC(=O)c1cc(C)on1)C(C)C)Cc1ccc(F)cc1` [rupintrivir, Rupintrivir], the “selectivity index (CC50/EC50)” value with Norwalk virus replicon [1] (HGT-NV cells) is given as > 77. Also, in the assay on Norwalk virus replicon [1] (Norwalk virus, 72 h, read-out: 50% effective concentration (EC50), replicon RNA), the EC50 is 1300 ± 100 nM. The colony formation result with Norwalk virus replicon [2] (2.5 μM for 12 days) is recorded as “some colonies remained”; in the assay on Norwalk virus replicon [2] (5 μM for 12 days) it was “some colonies remained”; in the assay on Norwalk virus replicon [2] (10 μM for 12 days) it was “completely prevent colony formation”.
